Test: xn = mol fraction of the nth substance listed
Details: Liquid, Vibrating tube method

CN(C)C=O [dimethylformamide] + O=C=O
Details	mass density [kg/m3]
332.98 K, 14003 kPa, x2 = 0.4268	937.07
332.98 K, 14011 kPa, x2 = 0.9311	761.83
332.98 K, 15006 kPa, x2 = 0.4268	938.28
332.98 K, 15009 kPa, x2 = 0.9311	776.41
332.98 K, 16024 kPa, x2 = 0.4268	939.46
332.98 K, 16030 kPa, x2 = 0.9311	789.22
332.98 K, 17017 kPa, x2 = 0.9311	800.11
332.98 K, 17036 kPa, x2 = 0.4268	940.67
332.98 K, 18002 kPa, x2 = 0.9311	809.93
332.98 K, 18017 kPa, x2 = 0.4268	941.85
332.98 K, 19025 kPa, x2 = 0.4268	943
332.98 K, 19031 kPa, x2 = 0.9311	819.29
332.98 K, 20004 kPa, x2 = 0.4268	944.1
332.98 K, 20025 kPa, x2 = 0.9311	827.57
332.98 K, 21001 kPa, x2 = 0.4268	945.19
332.98 K, 21030 kPa, x2 = 0.9311	835.37
332.98 K, 21993 kPa, x2 = 0.4268	946.33
332.98 K, 21994 kPa, x2 = 0.9311	842.35
332.98 K, 22998 kPa, x2 = 0.9311	849.15
332.98 K, 23015 kPa, x2 = 0.4268	947.45
332.98 K, 24024 kPa, x2 = 0.9311	855.75
332.98 K, 24114 kPa, x2 = 0.4268	948.62
332.98 K, 25011 kPa, x2 = 0.9311	861.78
332.98 K, 25061 kPa, x2 = 0.4268	949.68
332.99 K, 6007 kPa, x2 = 0.2876	926.13
332.99 K, 6998 kPa, x2 = 0.2876	927.15
332.99 K, 7991 kPa, x2 = 0.2876	928.18
332.99 K, 9011 kPa, x2 = 0.4461	930.78
332.99 K, 9021 kPa, x2 = 0.2876	929.22
332.99 K, 9993 kPa, x2 = 0.4461	931.95
332.99 K, 10024 kPa, x2 = 0.2876	930.23
332.99 K, 11006 kPa, x2 = 0.2876	931.19
332.99 K, 11013 kPa, x2 = 0.4461	933.65
332.99 K, 12003 kPa, x2 = 0.4461	934.9
332.99 K, 12020 kPa, x2 = 0.2876	932.19
332.99 K, 13012 kPa, x2 = 0.4461	936.18
332.99 K, 13024 kPa, x2 = 0.2876	933.16
332.99 K, 13991 kPa, x2 = 0.4461	937.43
332.99 K, 14028 kPa, x2 = 0.2876	934.12
332.99 K, 15009 kPa, x2 = 0.4461	938.71
332.99 K, 15010 kPa, x2 = 0.2876	935.07
332.99 K, 16010 kPa, x2 = 0.2876	936.01
332.99 K, 16010 kPa, x2 = 0.4461	939.93
332.99 K, 17001 kPa, x2 = 0.4461	941.16
332.99 K, 17003 kPa, x2 = 0.2876	936.96
332.99 K, 17994 kPa, x2 = 0.4461	942.35
332.99 K, 18005 kPa, x2 = 0.2876	937.87
332.99 K, 18988 kPa, x2 = 0.4461	943.52
332.99 K, 19008 kPa, x2 = 0.2876	938.78
332.99 K, 20001 kPa, x2 = 0.4461	944.69
332.99 K, 20007 kPa, x2 = 0.2876	939.69
332.99 K, 20995 kPa, x2 = 0.4461	945.88
332.99 K, 21004 kPa, x2 = 0.2876	940.6
332.99 K, 21990 kPa, x2 = 0.2876	941.48
332.99 K, 21998 kPa, x2 = 0.4461	947.03
332.99 K, 23023 kPa, x2 = 0.4461	948.19
332.99 K, 23037 kPa, x2 = 0.2876	942.42
332.99 K, 23982 kPa, x2 = 0.4461	949.27
332.99 K, 24000 kPa, x2 = 0.2876	943.28
332.99 K, 24996 kPa, x2 = 0.2876	944.13
332.99 K, 25021 kPa, x2 = 0.4461	950.44
333 K, 7019 kPa, x2 = 0.4502	928.11
333 K, 8001 kPa, x2 = 0.4502	929.45
333 K, 8029 kPa, x2 = 0.4068	930.01
333 K, 9015 kPa, x2 = 0.4502	930.81
333 K, 9016 kPa, x2 = 0.4068	931.23
333 K, 10008 kPa, x2 = 0.4068	932.42
333 K, 10013 kPa, x2 = 0.4502	932.14
333 K, 11006 kPa, x2 = 0.4502	933.42
333 K, 11025 kPa, x2 = 0.4068	933.65
333 K, 12004 kPa, x2 = 0.4502	934.74
333 K, 12006 kPa, x2 = 0.4068	934.81
333 K, 13019 kPa, x2 = 0.4068	936.04
333 K, 13021 kPa, x2 = 0.4502	936.04
333 K, 14010 kPa, x2 = 0.4068	937.15
333 K, 14019 kPa, x2 = 0.4502	937.31
333 K, 15001 kPa, x2 = 0.4502	938.54
333 K, 15002 kPa, x2 = 0.4068	938.28
333 K, 16010 kPa, x2 = 0.4068	939.41
333 K, 16014 kPa, x2 = 0.4502	939.78
333 K, 16998 kPa, x2 = 0.4068	940.54
333 K, 17013 kPa, x2 = 0.4502	941.01
333 K, 18013 kPa, x2 = 0.4068	941.67
333 K, 18021 kPa, x2 = 0.4502	942.21
333 K, 19006 kPa, x2 = 0.4502	943.4
333 K, 19008 kPa, x2 = 0.4068	942.75
333 K, 20008 kPa, x2 = 0.4068	943.81
333 K, 20021 kPa, x2 = 0.4502	944.58
333 K, 20981 kPa, x2 = 0.4068	944.88
333 K, 21001 kPa, x2 = 0.4502	945.74
333 K, 22001 kPa, x2 = 0.4068	945.96
333 K, 22027 kPa, x2 = 0.4502	946.9
333 K, 22996 kPa, x2 = 0.4068	947.02
333 K, 23019 kPa, x2 = 0.4502	948.04
333 K, 24013 kPa, x2 = 0.4068	948.07
333 K, 24013 kPa, x2 = 0.4502	949.18
333 K, 25001 kPa, x2 = 0.4068	949.09
333 K, 25015 kPa, x2 = 0.4502	950.28
342.89 K, 10992 kPa, x2 = 0.6235	886.15
342.89 K, 12012 kPa, x2 = 0.6235	889.74
342.89 K, 13020 kPa, x2 = 0.6235	893.05
342.89 K, 14010 kPa, x2 = 0.6235	896.16
342.89 K, 15018 kPa, x2 = 0.6235	899.25
342.89 K, 16005 kPa, x2 = 0.6235	902.14
342.89 K, 17023 kPa, x2 = 0.6235	905.02
342.89 K, 18015 kPa, x2 = 0.6235	907.74
342.89 K, 19032 kPa, x2 = 0.6235	910.42
342.89 K, 20044 kPa, x2 = 0.6235	913.05
342.89 K, 21008 kPa, x2 = 0.6235	915.46
342.89 K, 21997 kPa, x2 = 0.6235	917.87
342.89 K, 23022 kPa, x2 = 0.6235	920.31
342.89 K, 24005 kPa, x2 = 0.6235	922.57
342.89 K, 25050 kPa, x2 = 0.6235	924.92
342.92 K, 9047 kPa, x2 = 0.4268	916.56
342.92 K, 10045 kPa, x2 = 0.4268	917.97
342.92 K, 11042 kPa, x2 = 0.4268	919.28
342.92 K, 12037 kPa, x2 = 0.4268	920.66
342.92 K, 13020 kPa, x2 = 0.4268	921.93
342.92 K, 13997 kPa, x2 = 0.4268	923.27
342.92 K, 14981 kPa, x2 = 0.4268	924.53
342.92 K, 15034 kPa, x2 = 0.9311	711.76
342.92 K, 15061 kPa, x2 = 0.8091	832.64
342.92 K, 15988 kPa, x2 = 0.8091	839.54
342.92 K, 15991 kPa, x2 = 0.4268	925.79
342.92 K, 16002 kPa, x2 = 0.9311	729.81
342.92 K, 17002 kPa, x2 = 0.4268	927.11
342.92 K, 17015 kPa, x2 = 0.9311	745.62
342.92 K, 17027 kPa, x2 = 0.8091	845.55
342.92 K, 18016 kPa, x2 = 0.8091	851.1
342.92 K, 18024 kPa, x2 = 0.9311	759.3
342.92 K, 18025 kPa, x2 = 0.4268	928.36
342.92 K, 19002 kPa, x2 = 0.9311	770.95
342.92 K, 19028 kPa, x2 = 0.8091	856.53
342.92 K, 19044 kPa, x2 = 0.4268	929.6
342.92 K, 19999 kPa, x2 = 0.4268	930.83
342.92 K, 20000 kPa, x2 = 0.9311	781.74
342.92 K, 20057 kPa, x2 = 0.8091	861.77
342.92 K, 20984 kPa, x2 = 0.4268	931.96
342.92 K, 21012 kPa, x2 = 0.8091	866.52
342.92 K, 21034 kPa, x2 = 0.9311	791.87
342.92 K, 21992 kPa, x2 = 0.8091	871.08
342.92 K, 22002 kPa, x2 = 0.4268	933.2
342.92 K, 22002 kPa, x2 = 0.9311	800.53
342.92 K, 22999 kPa, x2 = 0.8091	875.54
342.92 K, 23014 kPa, x2 = 0.9311	809.02
342.92 K, 23042 kPa, x2 = 0.4268	934.44
342.92 K, 23981 kPa, x2 = 0.4268	935.53
342.92 K, 24017 kPa, x2 = 0.9311	816.82
342.92 K, 24029 kPa, x2 = 0.8091	879.9
342.92 K, 25008 kPa, x2 = 0.9311	824.06
342.92 K, 25020 kPa, x2 = 0.8091	883.99
342.92 K, 25047 kPa, x2 = 0.4268	936.75
342.93 K, 7012 kPa, x2 = 0.2876	914.85
342.93 K, 7999 kPa, x2 = 0.2876	915.95
342.93 K, 9007 kPa, x2 = 0.2876	917.04
342.93 K, 10005 kPa, x2 = 0.2876	918.13
342.93 K, 11003 kPa, x2 = 0.2876	919.16
342.93 K, 12011 kPa, x2 = 0.2876	920.23
342.93 K, 13016 kPa, x2 = 0.2876	921.27
342.93 K, 14012 kPa, x2 = 0.2876	922.31
342.93 K, 15013 kPa, x2 = 0.2876	923.35
342.93 K, 16000 kPa, x2 = 0.2876	924.33
342.93 K, 17024 kPa, x2 = 0.2876	925.34
342.93 K, 18001 kPa, x2 = 0.2876	926.31
342.93 K, 19036 kPa, x2 = 0.2876	927.32
342.93 K, 20015 kPa, x2 = 0.2876	928.27
342.93 K, 21009 kPa, x2 = 0.2876	929.23
